Assay results taken from PMC11104609, “Discovery of allosteric regulators with clinical potential to stabilize alpha-L-iduronidase in mucopolysaccharidosis type I” (PLOS ONE, 2024).

What was measured:
[1] = Plasma pharmacokinetics of GT-01803 in mice; assay type: in vivo, male C57BL/6 mice; details: male, C57BL/6, mouse
Description: The in vivo pharmacokinetic (PK) profile of GT-01803 in plasma was assessed in male C57BL/6 mice after single intravenous (i.v.) and oral gavage administration (p.o.) of 2 mg/kg and 10 mg/Kg, respectively. The plasma PK evaluation was performed by Sai Life Sciences Limited (Pune, India) in accordance with guidelines of the Institutional Animal Ethics Committee (IAEC). Eighteen male mice were divided into Group 1 (i.v.: 2 mg/kg) or Group 2 (p.o.: 10 mg/kg). Animals in Group 1 and Group 2 were administered intravenously and orally with GT-01803 solution formulation in 5% N-methyl-2-pyrrolidone (NMP), 5% Solutol HS-15 and 90% saline solution at 2 and 10 mg/kg doses, respectively.
Blood samples were collected under light isoflurane anesthesia from retro-orbital plexus such that samples were obtained at 0.08, 0.25, 0.5, 1, 2, 3, 4, 6 and 8 hr. (i.v.) and Pre-dose, 0.25, 0.5, 1, 2, 3, 4, 6 and 8 hr (p.o.). At each time point, blood samples were collected from three mice. Immediately after collection, plasma was harvested by centrifugation and stored at -70 °C until analysis. All samples were processed by protein precipitation using acetonitrile and analyzed with an LC/MS/MS method suitable for the purpose (LLOQ = 1.00 ng/mL).
PK parameters were calculated using the non-compartmental analysis tool of Phoenix WinNonlin (Version 7.0). Maximum concentration (Cmax) and time to reach maximum concentration (Tmax) were the observed values. The areas under the concentration time curve (AUClast and AUCinf) […] were calculated by linear trapezoidal rule. The terminal elimination rate constant, ke, was determined by regression analysis of the linear terminal portion of the log plasma concentration-time curve. The terminal half-life (T1/2) was estimated as follows 0.693/ke; CLi.v. = Dose/AUCinf; Vss = MRT X CLi.v.; %F = [(Mean AUCp.o. × Dosei.v.) / (Mean AUCi.v. × Dosep.o.)] × 100.

[2] = molecular target: T1, rhIDUA (Aldurazyme) (Homo sapiens, UniProt P35475); assay: IDUA assay in bone marrow of mice co-administered rhIDUA and GT-01803; assay type: in vivo, male C57BL/6 mice; details: GT-01803 5, 10, 20 mg/kg i.v. + rhIDUA 1.2 mg/kg i.v.; 6, 8, 10 h; dose-dependent, significant at 20 mg/kg
T1 sequence (P35475 28-653): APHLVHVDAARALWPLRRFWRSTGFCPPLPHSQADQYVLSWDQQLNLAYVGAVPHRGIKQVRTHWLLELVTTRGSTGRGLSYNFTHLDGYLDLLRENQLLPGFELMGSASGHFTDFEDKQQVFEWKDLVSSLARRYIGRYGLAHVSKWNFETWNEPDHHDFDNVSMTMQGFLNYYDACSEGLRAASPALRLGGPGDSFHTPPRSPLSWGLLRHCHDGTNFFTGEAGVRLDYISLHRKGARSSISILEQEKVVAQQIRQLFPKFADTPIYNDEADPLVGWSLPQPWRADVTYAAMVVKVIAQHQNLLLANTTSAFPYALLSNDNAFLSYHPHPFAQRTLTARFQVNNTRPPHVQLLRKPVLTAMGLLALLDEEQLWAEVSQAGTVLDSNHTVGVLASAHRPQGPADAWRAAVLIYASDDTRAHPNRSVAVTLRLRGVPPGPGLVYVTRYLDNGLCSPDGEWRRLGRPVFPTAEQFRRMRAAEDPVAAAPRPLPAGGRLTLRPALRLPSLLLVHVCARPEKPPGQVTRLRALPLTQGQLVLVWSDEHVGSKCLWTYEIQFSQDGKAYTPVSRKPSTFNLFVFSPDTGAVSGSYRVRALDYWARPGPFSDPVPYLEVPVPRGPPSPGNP
Description: Mice studies were performed by Sai Life Sciences (Pune, India). All procedures of the present study were in accordance with the guidelines provided by the Committee for the Purpose of Control and Supervision of Experiments on Animals (CPCSEA) as published in The Gazette of India, December 15, 1998. In addition, prior approval from the Institutional Animal Ethics Committee (IAEC) was obtained before the initiation of the study. Healthy male C57BL/6 mice (8–10 weeks old) weighing between 22 and 25 g were procured (Global, Pune, India). Three to five mice were housed in each cage. Temperature and humidity were maintained at 22 ± 2 °C and 41–63%, respectively, and illumination was controlled to give a sequence of a 12 h light and 12 h dark cycle. In the study’s in-life phase, we provided all mice with cage enrichment to minimize anxiety. We conducted bone marrow sampling under isoflurane anesthesia, maintaining it throughout the entire procedure. […] All procedures were carried out according to our in-house Standard Operating Procedures and monitored by a veterinarian if required. […]
Bone marrow samples from mice were collected at 2, 6, 8 and 10 h after treatment with compound #18 (GT-01803). […] The relative fluorescence unit (RFU) in the IDUA enzymatic assay was measured in duplicates (two replicates) and then averaged to obtain the enzyme activity per animal.

Structure (SMILES): CCN(CC(=O)Nc1c(Cl)cccc1Cl)Cc1nc2ccsc2c(=O)[nH]1 [GT-01803]
- AUC(0-inf) ([1]; iv, 2 mg/kg): 13600 ng·h/mL
- AUC(0-t) ([1]; iv, 2 mg/kg): 13300 ng·h/mL
- clearance ([1]; iv, 2 mg/kg): 2.45 mL/min/kg
- half-life ([1]; iv, 2 mg/kg): 3.54 h
- C0 ([1]; iv, 2 mg/kg, read-out: C0 (back extrapolated conc.)): 33500 ng/mL
- Vd ([1]; iv, 2 mg/kg, read-out: Vss): 0.13 L/kg
- bioavailability ([1]; oral, p.o. 10 mg/kg vs i.v. 2 mg/kg, AUClast considered, read-out: %F (oral bioavailability)): 50%
- AUC(0-inf) ([1]; po, 10 mg/kg): 33200 ng·h/mL
- AUC(0-t) ([1]; po, 10 mg/kg): 33000 ng·h/mL
- Cmax ([1]; po, 10 mg/kg): 33900 ng/mL
- Tmax ([1]; po, 10 mg/kg): 0.25 h
- IDUA enzymatic activity levels in bone marrow [2]: increased
